We go through 3 compounds from publication PMC11097166, “Imidazole-Derived Alkyl and Aryl Ethers: Synthesis, Characterization, In Vitro Anticancer and Antioxidant Activities, Carbonic Anhydrase I–II Inhibition Properties, and In Silico Studies” (ACS Omega, 2024).

The target of data set [1] is hCA I (Homo sapiens, UniProt P00915). Put plainly: CA esterase activity method, hCA I. Also: key: +: active; -: not effect. Format: biochemical. The following applies: Table S3. From the text: (§1) The method used to spectrophotometrically detect the antiepileptic, antiglaucoma, and […] effects of the obtained compounds in vitro is the esterase activity method. This method relies on the esterase activity of CA for the hydrolysis of p-nitrophenyl acetate as a substrate, which is a part of the reaction mechanism involving p-nitrophenol or p-nitrophenolate.

Data set [2] relates to HT29 cell line. The experiment in a line: Annexin V binding assay (flow cytometry) on HT29. It is filed as cell-based, human. The following applies: HT29, IC50 dose, 24 h. The method, then:
(§2) Approximately 5 × 10^5 seeds of each cancer cell were seeded into six-well plates and allowed to adhere overnight. […] Cells harvested after trypsinization were suspended in PBS containing at least 1% FBS. The manufacturer’s instructions were then followed, and the Annexin V and dead cell reagent were mixed with the cells. Afterward, the percentage of dead, viable, early and late apoptotic cells was determined using the muse cell analyzer (Millipore) device.

Data set [3] has as its system HT29 colon cancer cell line. The experiment in a line: MTT cell viability assay on HT29. It is filed as cell-based, human. From the text:
(§3) 96-well plates were used for seeding cells. […] All compounds were run in three repetitions.

Data set [4] in a line: MTT cell viability assay on L929. To be noted: mouse, L929 fibroblast cells.
Procedure: (§5) Human breast adenocarcinoma cell line (MCF7), rat glial tumor cell line (C6), healthy mouse fibroblast cell line (L929), and colon cancer (HT29) cell line were purchased from ATCC (American type culture collection) and studied.
(§6) The cytotoxic effects of all compounds by MTT analysis on L929, HT29, MCF7, and C6 cell lines were investigated. 96-well plates were used for seeding cells. Approximately 1 × 10^4 cells were seeded in each well. Cells were allowed to adhere for 24 h, and then the compounds were applied at different concentrations. All compounds were run in three repetitions. Wells with a maximum of 100 μM compounds were incubated for 24 h. Three wells without compounds treated with only DMSO (with total volume of % 0.5) were used as negative controls, and cisplatin was used as a positive control. […] After the MTT interaction, the FRAP wells were emptied, and DMSO solution was placed in them. The formazan crystals formed were dissolved with this solution, and the number of viable cells in each well was determined by color change.
For data set [5], the system named is L929 mouse fibroblast cell line. Put plainly: MTT cell viability assay on L929. To be noted: for toxicity in L929 healthy cell line: 100 μM, 24 h, triplicate; for IC50: read-out: IC50 L929.
Procedure: as §5, §6
Data set [6] relates to C6 rat glial tumor cell line. Put plainly: MTT cell viability assay on C6. It is filed as cell-based. To be noted: 24 h incubation.
Excerpt: as §3

Data set [7] relates to HT29 cell line. The experiment in a line: Cell cycle (DNA content) assay on HT29. It is filed as cell-based, human. The following applies: colon cancer (HT29), IC50 dose. The method, then: (§4) DNA content (cell cycle) analyses were performed with the MUSE flow cytometry device. When the IC50 results obtained were evaluated, compounds 3a and 3b caused selective toxicity in the HT29 and C6 cancer cell lines compared to L929, respectively. Therefore, the main pathways of compounds 3a and 3b in cells were determined with the MUSE (cell cycle) kit.

For data set [8], the target named is hCA II (Homo sapiens, UniProt P00918). Put plainly: CA esterase activity method, hCA II. Also: key: +: active; -: not effect. It is filed as biochemical. To be noted: Table S3.
Excerpt: as §1

For data set [9], the system named is L929 healthy mouse fibroblast cells. The experiment in a line: Annexin V binding assay (flow cytometry) on L929. The following applies: L929, IC50 dose of the compound for the cancer cell line, 24 h. Format: cell-based. On the procedure:
as §2

Data set [10] in a line: FRAP antioxidant assay. To be noted: trolox standard curve. On the procedure:
The FRAP method was used to determine the antioxidant power of compounds. This method, which determines the reducing power of compounds, was developed by Benzie and Strain.[48] Fe(III)–TPTZ complex is formed as a result of the reaction of Fe(III) with tripyridyltriazine (TPTZ), and this complex is reduced to the Fe(II)–TPTZ complex with the antioxidant in the environment. The color of this complex is dark blue and gives the maximum absorbance at 593 nm.[48] Incubation is performed for up to 30 min to complete the reaction, and the correct absorbance values were read. The FRAP values of the samples were calculated as “μmol trolox equiv/g sample” with the help of the standard curve obtained using methanol–trolox standard solutions (0; 0.2; 0.4; 0.6; 0.8; and 1.0 μmol/mL) which were used as the positive control.[49] […]

The test system of data set [11] is MCF7 human breast adenocarcinoma cell line. Put plainly: MTT cell viability assay on MCF7. Format: cell-based.
Excerpt: as §3

Data set [12] relates to C6 cell line. Put plainly: Annexin V binding assay (flow cytometry) on C6. To be noted: C6, IC50 dose, 24 h. It is filed as cell-based, rat. The method, then:
as §2

Data set [13] relates to C6 cell line. The experiment in a line: Cell cycle (DNA content) assay on C6. It is filed as cell-based, rat. To be noted: glioblastoma (C6), IC50 dose. On the procedure:
as §4

Data set [14] relates to L929 mouse fibroblast cell line.
Procedure: as §5, §6
Where [15] appears, read: Homo sapiens, HT-29, 24 h incubation.
Where [16] appears, read: Homo sapiens, MCF7, 24 h incubation.

Read-outs that look alike come from different tables or passages of the source.

Chain of hCA I (P00915 whole entry): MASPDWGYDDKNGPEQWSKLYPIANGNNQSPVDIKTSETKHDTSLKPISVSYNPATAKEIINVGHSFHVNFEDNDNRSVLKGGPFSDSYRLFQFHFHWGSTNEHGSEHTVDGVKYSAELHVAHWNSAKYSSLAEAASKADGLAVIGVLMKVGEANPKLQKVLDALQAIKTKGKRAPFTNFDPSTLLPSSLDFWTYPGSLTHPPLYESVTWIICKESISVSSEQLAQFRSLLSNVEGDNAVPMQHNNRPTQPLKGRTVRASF

On to `O=C(Cn1ccnc1)c1ccccc1` [Compound 3a, 2-(1H-Imidazol-1-yl)-1-phenylethanone], for which the “Effect on hCA I isoenzyme activity” value in data set [1] is recorded as “-”. In addition, the “Apoptosis profile: Early Apop.” value in data set [2] stood at 7.83%. Besides, the “Apoptosis profile: Late Apop./Dead” value in data set [2] turned out to be 22.56%. The “Apoptosis profile: Live” value came to 60.77% in data set [2] and 98.37% in data set [9]. Also, the IC50 in [3] (setting [15]) is 20.9 ± 1.02 µM; in data set [5] (Mus musculus, L929, 24 h), 174 ± 10.1 µM; in data set [6] (Rattus norvegicus, 24 h), 15.76 ± 0.08 µM; in data set [11] (setting [16]) it was 161 ± 15.5 µM. The viability at 24 h, 100 μM in data set [4] was ≥ 50%. In addition, in data set [5] (MTT), the “toxicity in L929 healthy cell line” value is “not toxic”. Further, the “phase in which the cell cycle stopped” value in data set [7] is “G0/G1 phase”. The “Effect on hCA II isoenzyme activity” value in [8] is given as “-”. This compound came in with an FRAP in [10] of 0.18 ± 0.07 μmol trolox equiv/g.

Regarding `O=C(Cn1ccnc1)c1ccc(Cl)cc1` [Compound 3b, 1-(4-Chlorophenyl)-2-(1H-imidazol-1-yl)ethanone], in data set [1], the “Effect on hCA I isoenzyme activity” value is reported as “-”. Moreover, the IC50 amounted to 59.6 ± 5.73 µM in data set [3] (setting [15]); 138 ± 4.06 µM in data set [5] (Mus musculus, L929, 24 h); 10.7 ± 0.38 µM in data set [6]; 10.7 ± 0.38 µM in data set [6] (Rattus norvegicus, 24 h); 117 ± 14.5 µM in data set [11] (setting [16]). Also, the viability at 24 h, 100 μM in data set [4] was ≥ 50%. For the same compound, the “toxicity in L929 healthy cell line” value in [5] (MTT) was “not toxic”. For the same compound, the “Effect on hCA II isoenzyme activity” value in [8] is reported as “-”. In addition, the “Apoptosis profile: Live” value in data set [9] is recorded as 99.17%; in [12] it was 65.46%. In addition, the FRAP in [10] was 0.20 ± 0.04 μmol trolox equiv/g. In addition, the “Apoptosis profile: Early Apop.” value in [12] worked out at 14.96%. Moreover, the “Apoptosis profile: Late Apop./Dead” value in [12] amounted to 18.33%. Moreover, in data set [13], the “phase in which the cell cycle stopped” value is listed as “G0/G1 phase”.

As for “2-(1H-Imidazol-1-yl)-1-(4-methoxyphenyl)ethenol [Compound 4c]”, in data set [1], the “Effect on hCA I isoenzyme activity” value is reported as “+”. The 50% inhibitory concentration (IC50) was found to be 88.4 ± 15.7 µM in data set [3] (24 h incubation); 194 ± 12.2 µM in data set [5] (24 h incubation, MTT); 43.8 ± 5.83 µM in data set [6]; 101 ± 14.5 µM in [11] (24 h incubation). The “Effect on hCA II isoenzyme activity” value in [8] was “+”. In addition, the “viability on healthy cell line at maximum dose” value in data set [14] was “at least 50%”. In data set [10], this compound came in with an FRAP of 0.29 ± 0.05 μmol trolox equiv/g.
